Reference: patent publication EP1137645B1, “ALPHA-METHYLBENZYL-CONTAINING THIOUREA INHIBITORS OF HERPES VIRUSES CONTAINING A […] GROUP” (Wyeth, priority 1998, dated 2000)
Values after ≈ are worked out from the molar mass of the structure shown. Like-named read-outs stand apart in the source and are kept apart here.

Assays:
[1] = system: HCMV recombinant mutant virus whose genome contains the prokaryotic beta-glucuronidase gene; test: microbe, parasite or virus in culture; assay type: cell-based, human cytomegalovirus; conditions: Human betaherpesvirus 5, Fibroblast
Source text: Microtiter plate assay. Ninety-six well plate cultures of human foreskin fibroblasts are infected in the presence of inhibitor compound with a HCMV recombinant mutant virus whose genome contains the prokaryotic beta-glucuronidase gene (Jefferson, R. A., S. M. Burgess, and D. Hirsh. 1986. Beta-glucuronidase from Escherichia coli as a gene fusion marker. Proc. Natl. Acad. Sci. USA 83:8447-8451) whose expression is controlled by a viral promoter. An example of such a virus is RV145 (Jones, T. R., V. P. Muzithras, and Y. Gluzman. 1991. Replacement mutagenesis of the human cytomegalovirus genome: US10 and US11 gene products are nonessential. J. Virol. 65:5860-5872). Since it is under the control of a viral promoter, beta-glucuronidase expression is an indirect indicator of growth and replication of HCMV in this assay. At 96 hours post-infection, the infected cell lysates are prepared (using 50mM sodium phosphate [pH7.0] containing 0.1% Triton X-100 and 0.1% sarkosyl) and assayed for beta-glucuronidase activity using a substrate for the enzyme which when cleaved yields either a product which can be measured colorimetrically in a spectrophotometer or fluorescently in a microfluorimeter. Examples of such substrates are p-nitrophenyl-beta-D-glucuronide and methylumbelliferylglucuronide, respectively. The presence of an antiviral compound is indicated by the reduced expression of the HCMV genome resident beta-glucuronidase gene, compared to the absence of inhibitor. […] Data from this assay generated using varying amounts of inhibitor compound is also used to estimate the IC50 of an inhibitor compound.

[2] = system: HSV- I; test: HSV antiviral (ELISA) assay; assay type: cell-based; conditions: read-out: IC50 (ug/ml) HSV
Method: Vero cells (ATCC #CCL-81) are plated on 96-well tissue culture plates at 3.5x10^4 cells per 100µl tissue culture DMEM (Dulbecco's modified Eagle media) supplemented with 2% fetal bovine serum (FBS) in each well. After overnight incubation @ 37°C (in 5% CO2) and 30 minutes prior to infection with HSV- I (multiplicity of infection equal to 0.006), cells are either untreated, or treated with test compound (multiple concentrations) or reference standard drug control. After approximately 24 hours post-infection incubation @ 37°C (in 5% CO2), cells are fixed for ELISA assay. The primary antibody is murine anti-HSV glycoprotein D monoclonal primary antibody and the secondary antibody is goat anti-mouse IgG linked to β-galactosidase. Thus the extent of viral replication is determined by assessing β-galactosidase activity by quantifying the generation of the 4-methyl umbelliferone fluorescent cleavage product after addition of the methyl umbelliferyl-β-D-galactoside (Sigma #M1633) substrate on a microfluorimeter (365nm for excitation and 450nm for emission). Antiviral activity (IC50) of the test compound is determined by comparing the flourescence obtained in absence of compound to that obtained in the presence of compound.

[3] = system: VZV strain Ellen; test: VZV antiviral (ELISA) assay; assay type: cell-based
Method: For the generation of stock VZV to be used in the assay, VZV strain Ellen (ATCC #VR-1367) is used to infect human foreskin fibroblast (HFF) cells at low multiplicity (less than 0.1) and incubated overnight at 37°C in 5% CO2. After the overnight incubation, the mixture of uninfected and VZV-infected HFF infected cells are then harvested and added to each well of 96-well plates (3.5x10^4 cells in 100 µl DMEM supplemented with 2% FBS) which contain test compound or the reference standard drug control (in 100µl DMEM supplemented with 2% FBS per well). These cells are incubated for three days at 37°C in 5% CO2, then fixed for ELISA assay. The primary antibody is murine anti-VZV glycoprotein II monoclonal antibody (Applied Biosystems, Inc. #13-145-100) and the secondary antibody is goat anti-mouse IgG linked to β-galactosidase. Thus the extent of viral replication is determined by assessing β-galactosidase activity by quantifying the generation of the 4-methyl umbelliferone fluorescent cleavage product after addition of the methyl umbelliferyl-β-D-galactoside (Sigma #M1633) substrate on a microfluorimeter (365nm for excitation and 450nm for emission). Antiviral activity (IC50) of the test compound is determined by comparing the flourescence obtained in absence of compound to that obtained in the presence of compound.

[4] = read-out: IC50 ug/ml HCMV, HCMV, human foreskin fibroblasts
[5] = Human alphaherpesvirus 3, HFF, read-out: IC50 (ug/ml) VZV, VZV strain Ellen, HFF cells, ELISA
[6] = Human alphaherpesvirus 3, HFF, read-out: % inhibition 10 ug/ml VZV
[7] = Human alphaherpesvirus 3, HFF, read-out: IC50 (ug/ml) VZV
[8] = Human alphaherpesvirus 3, read-out: % inhibition 10 ug/ml VZV, 10 ug/ml, VZV strain Ellen, HFF cells, ELISA
[9] = Human alphaherpesvirus 3, VZV strain Ellen, HFF cells, ELISA, read-out: IC50 (ug/ml) VZV

SMILES	IC50 [1, 4]	IC50 ([2]; Vero)	IC50 [3, 5]	IC50 ([2]; HSV- I, Vero cells, ELISA)	inhibition at 10 µg/mL [3, 6]	IC50 [3, 7]	IC50 ([1]; read-out: IC50 ug/ml HCMV)	inhibition at 10 µg/mL [3, 8]	IC50 [3, 9]
CC(NC(=S)Nc1ccc(NC(=O)c2nccc3ccccc23)cc1)c1ccc(Br)cc1 (centres unmarked) [Example 978, Isoquinoline-1-carboxylic acid (4-{3-[1-(4-bromo-phenyl)-ethyl]-thioureido}-phenyl)-amide]	7.8 µg/mL (≈ 15.4 µM)	> 10 µg/mL	0.04 µg/mL (≈ 0.0791 µM)	–	–	–	–	–	–
CCCCOc1ccc(NC(=S)Nc2ccc(NC(=O)c3ccccc3F)cc2)cc1Cl [Example 809, N-{4-[3-(4-Butoxy-3-chloro-phenyl)-thioureido]-phenyl}-2-fluoro-benzamide]	> 10 µg/mL	> 10 µg/mL	> 7.5 µg/mL	–	–	–	–	–	–
COc1cc(OC)c(NC(=S)Nc2ccc(NC(=O)c3ccccc3[N+](=O)[O-])cc2)cc1Cl [Example 143, N-{4-[3-(5-Chloro-2,4-dimethoxy-phenyl)-thioureido]-phenyl}-2-nitro-benzamide]	> 10 µg/mL	–	–	1 µg/mL (≈ 2.05 µM)	68%	> 15 µg/mL	–	–	–
Cc1ccc([C@H](C)NC(=S)Nc2ccc(NC(=O)c3ccccc3F)cc2)cc1 [Example 1011, 2-Fluoro-N-{4-[3-((1S)-1-p-tolyl-ethyl)-thioureido]-phenyl}-benzamide]	6.8 µg/mL (≈ 16.7 µM)	> 10 µg/mL	0.55 µg/mL (≈ 1.35 µM)	–	–	–	–	–	–
COc1cccc(C(=O)Nc2ccc(NC(=S)Nc3ccc(C)c(Cl)c3)cc2)c1 [Example 232, N-{4-[3-(3-Chloro-4-methyl-phenyl)-thioureido]-phenyl}-3-methoxy-benzamide]	> 10 µg/mL	–	–	1 µg/mL (≈ 2.35 µM)	21%	> 10 µg/mL	–	–	–
Nc1c(Cl)cc(NC(=S)Nc2ccc(NC(=O)c3ccccc3F)cc2)cc1Cl [Example 518, N-{4-[3-(4-Amino-3,5-dichloro-phenyl)-thioureido]-phenyl}-2-fluoro-benzamide]	4 µg/mL (≈ 8.9 µM)	–	–	0.25 µg/mL (≈ 0.556 µM)	32%	> 10 µg/mL	–	–	–
COc1cc(OC)c(NC(=S)Nc2ccc(NC(=O)c3ccccc3NS(C)(=O)=O)cc2)cc1Cl [Example 191, N-{4-[3-(5-Chloro-2,4-dimethoxy-phenyl)-thioureido]-phenyl}-2-methane-sulfonylamino-benzamide]	> 10 µg/mL	8 µg/mL (≈ 15 µM)	> 10 µg/mL	–	22%	–	–	–	–
CS(=O)(=O)c1ccc(NC(=S)Nc2ccc(NC(=O)c3c(F)cccc3F)cc2)cc1Cl [Example 393, N-{4-[3-(3-Chloro-4-methanesulfonyl-phenyl)-thioureido]-phenyl}-2,6-difluoro-benzamide]	0.5 µg/mL (≈ 1.01 µM)	–	–	> 10 µg/mL	62%	> 10 µg/mL	–	–	–
Cc1nc2cc(NC(=S)Nc3ccc(NC(=O)c4ccccc4F)cc3)ccc2[nH]1 [Example 497, 2-Fluoro-N-{4-[3-(2-methyl-1H-benzoimidazol-5-yl)-thioureido]-phenyl}-benzamide]	–	–	–	> 10 µg/mL	–	–	10 µg/mL (≈ 23.8 µM)	10%	> 10 µg/mL
CN(C)c1cc(Cl)cc(NC(=S)Nc2ccc(NC(=O)c3ccccc3F)cc2)c1 [Example 523, N-{4-[3-(3-Chloro-5-dimethylamino-phenyl)-thioureido]-phenyl}-2-fluoro-benzamide]	3.2 µg/mL (≈ 7.22 µM)	–	–	0.6 µg/mL (≈ 1.35 µM)	75%	4 µg/mL (≈ 9.03 µM)	–	–	–
COc1cc(OC)c(NC(=S)Nc2ccc(NC(=O)c3cccc(OCCN(C)C)c3)cc2)cc1Cl [Example 257, N-{4-[3-(5-Chloro-2,4-dimethoxy-phenyl)-thioureido]-phenyl}-3-(2-dimethylamino-ethoxy)-benzamide]	7 µg/mL (≈ 13.2 µM)	–	–	2.5 µg/mL (≈ 4.73 µM)	105%	2.5 µg/mL (≈ 4.73 µM)	–	–	–
CN(C)c1ccc(Cl)cc1NC(=S)Nc1ccc(NC(=O)c2ccccc2F)cc1 [Example 490, N-{4-[3-(5-Chloro-2-dimethylamino-phenyl)-thioureido]-phenyl}-2-fluoro-benzamide]	2.5 µg/mL (≈ 5.64 µM)	–	–	1 µg/mL (≈ 2.26 µM)	68%	> 10 µg/mL	–	–	–
CC(NC(=S)Nc1ccc(NC(=O)c2ccccc2Br)cc1)c1ccc(F)cc1 (centres unmarked) [Example 795, 2-Bromo-N-(4-{3-[1-(4-fluoro-phenyl)-ethyl]-thioureido}-pbenyl)-benzamide]	4.1 µg/mL (≈ 8.68 µM)	8.6 µg/mL (≈ 18.2 µM)	> 7.5 µg/mL	–	–	–	–	–	–
COC(=O)c1cccc(C(=O)Nc2ccc(NC(=S)Nc3cc(Cl)c(OC)cc3OC)cc2)c1 [Example 208, N-{4-[3-(5-Chloro-2,4-dimethoxy-phenyl)-thioureido]-phenyl}-isophthalamic acid methyl ester]	> 10 µg/mL	–	–	10 µg/mL (≈ 20 µM)	25%	> 10 µg/mL	–	–	–
CC(NC(=S)Nc1ccc(NC(=O)c2ccccc2F)cc1)c1cccc(N(C)C)c1 (centres unmarked) [Example 794, N-(4-{3-[1-(3-Dimethylamino-phenyl)-ethyl]-thioureido}-phenyl)-2-fluoro-benzamide]	6.2 µg/mL (≈ 14.2 µM)	7 µg/mL (≈ 16 µM)	0.4 µg/mL (≈ 0.916 µM)	–	–	–	–	–	–
O=C(Nc1ccc(NC(=S)Nc2cccc(F)c2)cc1)c1ccccc1F [Example 962, 2-Fluoro-N-{4-[3-(3-fluoro-phenyl)-thioureido]-phenyl}-benzamide]	–	–	–	> 10 µg/mL	–	–	> 10 µg/mL	10%	> 10 µg/mL
CC(NC(=S)Nc1ccc(NC(=O)c2ccc(F)cc2)cc1)c1ccc(F)cc1 (centres unmarked) [Example 801, 4-Fluoro-N-(4-{3-[1-(4-fluoro-phenyl)-ethyl]-thioureido}-phenyl)-benzamide]	–	–	–	> 10 µg/mL	–	–	> 10 µg/mL	–	> 7.5 µg/mL
Cc1ccc([C@@H](C)NC(=S)Nc2ccc(NC(=O)c3ccccc3F)cc2)cc1 [Example 1012, 2-Fluoro-N-{4-[3-((1R)-1-p-tolyl-ethyl)-thioureido]-phenyl}-benzamide]	7.1 µg/mL (≈ 17.4 µM)	> 10 µg/mL	> 7.5 µg/mL	–	–	–	–	–	–
CC(NC(=S)Nc1ccc(NC(=O)c2ccccc2F)cc1)c1ccc(C#N)cc1 (centres unmarked) [Example 792, N-(4-{3-[1-(4-Cyano-phenyl)-ethyl]-thioureido}-phenyl)-2-fluoro-benzamide]	–	–	–	> 10 µg/mL	–	–	5 µg/mL (≈ 11.9 µM)	–	> 7.5 µg/mL
CC(NC(=S)Nc1ccc(NC(=O)c2cc3ccccc3cn2)cc1)c1ccc(C#N)cc1 (centres unmarked) [Example 986, Isoquinoline-3-carboxylic acid (4-{3-[1-(4-cyano-phenyl)-ethyl]-thioureido}-phenyl)-amide]	5.2 µg/mL (≈ 11.5 µM)	> 10 µg/mL	0.05 µg/mL (≈ 0.111 µM)	–	–	–	–	–	–
CC(NC(=S)Nc1ccc(NC(=O)c2cc3ccccc3o2)cc1)c1cc2ccccc2o1 (centres unmarked) [Example 981, Benzofuran-2-carboxylic acid {4-[3-(1-benzofuran-2-yl-ethyl)-thioureido]-phenyl}-amide]	> 10 µg/mL	–	–	> 10 µg/mL	–	0.2 µg/mL (≈ 0.439 µM)	–	–	–
CCCOc1ccc(NC(=S)Nc2ccc(NC(=O)c3ccccc3F)cc2)cc1Cl [Example 807, N-{4-[3-(3-Chloro-4-propoxy-phenyl)-thioureido]-phenyl}-2-fluoro-benzamide]	10 µg/mL (≈ 21.8 µM)	> 10 µg/mL	0.9 µg/mL (≈ 1.97 µM)	–	–	–	–	–	–
